# Data: publication PMC9415822, “Amphotericin B-PEG Conjugates of ZnO Nanoparticles: Enhancement Antifungal Activity with Minimal Toxicity” (Pharmaceutics, 2022)
# What was measured:
# [1] = system: Candida albicans ATCC 64548; assay: In vitro antifungal assay, broth microdilution (MIC/MFC), C. albicans; format: cell-based; conditions: ATCC64548, SDA plates, 37 °C, 48 h
# Experimental: The broth microdilution method was used to assess the antifungal susceptibility of free AMB, and ZnO, ZnO-AMB, and ZnO-AMB-PEG nanoparticles against Candida albicans ATCC 64548 and Cryptococcus neoformans ATCC 90112 according to the Clinical Laboratory and Standards Institute Guidelines (CLSI, 2015). The nanoparticle solutions were serially diluted in sterile saline to obtain dilutions ranging from 5.0 to 0.00625 µg/mL. Aliquots (100 µL) from different dilutions of different preparations were transferred to the wells of 96-well microtiter plate. Fresh cultures of the tested strains were suspended in RPMI 1640 provided with L-glutamine and MOPS at pH 7.0 to prepare suspensions with a turbidity approximating that of 0.5 McFarland Standard. The fungal suspensions were diluted 1:100 with RPMI 1640 to obtain cell density of 1 × 10^5 CFU/mL. Of the prepared fungal suspensions, 100 µL was added to all dilutions of nanoparticle preparations. […] The minimum inhibitory concentration (MIC) was considered as the lowest concentration that inhibited the visible turbidity. The experiment was repeated six times and both positive control (inoculated fungi in broth without any addition) and negative control (sterile broth without fungi) were included in the experiment. The minimum fungicidal concentration (MFC) was determined according to [23].
# [2] = system: Cryptococcus neoformans ATCC 90112; assay: In vitro antifungal assay, broth microdilution (MIC/MFC), C. neoformans; format: cell-based
# Experimental: The broth microdilution method was used to assess the antifungal susceptibility of free AMB, and ZnO, ZnO-AMB, and ZnO-AMB-PEG nanoparticles against Candida albicans ATCC 64548 and Cryptococcus neoformans ATCC 90112 according to the Clinical Laboratory and Standards Institute Guidelines (CLSI, 2015). The nanoparticle solutions were serially diluted in sterile saline to obtain dilutions ranging from 5.0 to 0.00625 µg/mL. Aliquots (100 µL) from different dilutions of different preparations were transferred to the wells of 96-well microtiter plate. Fresh cultures of the tested strains were suspended in RPMI 1640 provided with L-glutamine and MOPS at pH 7.0 to prepare suspensions with a turbidity approximating that of 0.5 McFarland Standard. The fungal suspensions were diluted 1:100 with RPMI 1640 to obtain cell density of 1 × 10^5 CFU/mL. Of the prepared fungal suspensions, 100 µL was added to all dilutions of nanoparticle preparations. The microtiter plates were incubated at 37 °C for 24 h for C. albicans, and 48 h for C. neoformans. The minimum inhibitory concentration (MIC) was considered as the lowest concentration that inhibited the visible turbidity. […] The minimum fungicidal concentration (MFC) was determined according to [23].
# Male Wistar rats [3] = assay: In vivo toxicity: hematological parameters after injection; design: species or system rat; conditions: 10 mg/kg intraperitoneal for seven days, blood on eighth day
# Experimental: (§1) Male Wistar rats weighing 180–220 g were used in this study. The animals were housed in rooms with controlled temperature (23 ± 1 °C) and relative humidity (55 ± 5%) and were allowed free access to water and food during acclimatization. Animals were fasted for 24 h before the experiments but could drink water ad libitum. The animal study protocol was approved by the Ethical Committee, Pharmacy College, Prince Sattam Bin Abdulaziz University, Al-Kharj, KSA (approval number: PHARM-11-10-2021).
# (§2) Blood parameters including count of leucocytes (WBC) and red blood cell (RBC), and hemoglobin concentration (Hb), and hemocrit percentage were employed to evaluate the hematological toxicity associated with AMB. Furthermore, the kidney functions were assessed by measuring blood urea nitrogen (BUN) and serum creatinine. Hepatic functions were evaluated by the measure of aspartate transaminase (AST) and alanine transaminase (ALT). Four groups of male Wistar rats, each composed of 5 rats weighing approximately 200 g were used in this study. Three groups were intraperitoneally injected with free AMB, ZnO-AMB or ZnO-AMB-PEG (10 mg/kg body weight) for a continuous seven days. The fourth group was left uninjected as control group. On the eighth day, all rats were anesthetized and euthanized by decapitation for hematological and biochemical assays.
# Male Wistar rats [4] = assay: In vivo toxicity: biochemical parameters (kidney and liver functions) after injection; design: species or system rat; conditions: 10 mg/kg intraperitoneal for seven days, eighth day
# Experimental: as §1, §2
structure (smiles),measurement,setting,value
"C[C@@H]1[C@H](O)[C@@H](C)/C=C/C=C/C=C/C=C/C=C/C=C/C=C/[C@H](O[C@@H]2O[C@H](C)[C@@H](O)[C@H](N)[C@@H]2O)C[C@@H]2O[C@](O)(C[C@@H](O)C[C@@H](O)[C@H](O)CC[C@@H](O)C[C@@H](O)CC(=O)O[C@H]1C)C[C@H](O)[C@H]2C(=O)O [AMB, Amphotericin B]",MFC,[1],0.6 µg/mL
same,MIC,"[2]; ATCC90112, RPMI 1640, 37 °C, 48 h",0.05 µg/mL
same,MFC,"[2]; ATCC90112, SDA plates, 37 °C, 72 h",0.4 µg/mL
same,Hb,Male Wistar rats [3],13.22 ± 0.95 g%
same,Hematocrit,Male Wistar rats [3],37.01 ± 2.68%
same,RBCs,Male Wistar rats [3],7.09 ± 0.61 ×10^6/μL
same,WBCs,Male Wistar rats [3],17.90 ± 2.46 ×10^3/μL
same,Kidney Functions BUN,Male Wistar rats [4],66.52 ± 12.46 mg%
same,Kidney Functions Creatinine,Male Wistar rats [4],0.63 ± 0.11 mg%
same,Liver Functions ALT,Male Wistar rats [4],100.49 ± 20.95 IU/L
same,Liver Functions AST,Male Wistar rats [4],453.15 ± 120.19 IU/L
